# Experimental data published in publication PMC8983078 (Drug Discovery Today, 2022).
# Where a name gives a salt, the structure may show the parent alone. Read-outs that look alike come from different tables or passages of the source.
# Tests used:
# [1] = cited from earlier work
# hERG channel [2] = target: T1, hERG channel (Homo sapiens, UniProt Q12809); details: cited from earlier work
# phospholipidosis (PLD) = details: read-out: PLD EC50; NPC qHTS in-house database; cited from earlier work
# hERG channel [3] = target: T1, hERG channel
# SARS-CoV-1 = details: cited from earlier work
# [4] = test system: Middle East respiratory syndrome (MERS)-CoV; details: cited from earlier work
# SARS-CoV-2 = details: cited from earlier work; for SARS-CoV-2 CPE EC50: Vero E6 cells infected for 72 h, NPC qHTS in-house database
# COVID-19 = details: patients hospitalized with COVID-19, observational; cited from earlier work
# autophagy = details: in words; screening data; cited from earlier work
# [5] = tier stated per drug in the text, based on hERG curve rank
# T1 sequence (Q12809 whole entry): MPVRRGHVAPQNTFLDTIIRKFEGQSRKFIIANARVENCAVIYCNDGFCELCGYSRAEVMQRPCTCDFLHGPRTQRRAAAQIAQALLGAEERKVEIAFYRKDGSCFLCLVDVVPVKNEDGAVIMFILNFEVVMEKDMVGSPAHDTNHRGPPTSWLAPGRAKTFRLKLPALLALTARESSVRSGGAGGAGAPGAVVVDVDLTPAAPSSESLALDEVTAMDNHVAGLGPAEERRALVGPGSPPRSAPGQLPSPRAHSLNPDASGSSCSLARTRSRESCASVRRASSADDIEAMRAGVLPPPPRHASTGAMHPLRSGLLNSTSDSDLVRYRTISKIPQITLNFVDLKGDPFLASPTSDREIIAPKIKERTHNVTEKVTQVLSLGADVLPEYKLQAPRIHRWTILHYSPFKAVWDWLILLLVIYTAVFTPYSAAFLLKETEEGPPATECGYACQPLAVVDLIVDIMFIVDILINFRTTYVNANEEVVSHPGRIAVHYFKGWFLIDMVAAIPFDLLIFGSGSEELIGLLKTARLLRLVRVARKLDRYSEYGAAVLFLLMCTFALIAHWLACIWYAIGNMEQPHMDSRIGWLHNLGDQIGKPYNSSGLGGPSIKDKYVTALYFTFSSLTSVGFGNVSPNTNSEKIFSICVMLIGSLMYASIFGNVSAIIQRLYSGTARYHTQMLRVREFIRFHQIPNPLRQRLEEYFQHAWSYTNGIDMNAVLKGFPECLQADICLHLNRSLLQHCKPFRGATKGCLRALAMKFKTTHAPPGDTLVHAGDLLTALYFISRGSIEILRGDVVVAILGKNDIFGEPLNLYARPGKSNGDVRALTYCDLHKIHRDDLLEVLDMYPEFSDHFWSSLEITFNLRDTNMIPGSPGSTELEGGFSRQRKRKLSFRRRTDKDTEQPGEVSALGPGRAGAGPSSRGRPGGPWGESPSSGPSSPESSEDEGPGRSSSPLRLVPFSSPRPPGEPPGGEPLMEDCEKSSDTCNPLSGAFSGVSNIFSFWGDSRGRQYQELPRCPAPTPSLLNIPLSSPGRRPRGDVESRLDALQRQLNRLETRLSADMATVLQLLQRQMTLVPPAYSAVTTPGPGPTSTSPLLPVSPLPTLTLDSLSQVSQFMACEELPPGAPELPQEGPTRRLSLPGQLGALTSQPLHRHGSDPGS
smiles,measurement,setting,value
COc1ccc(CCN2CCC(Nc3nc4ccccc4n3Cc3ccc(F)cc3)CC2)cc1 [Astemizole],TdP risks,[1],known TdP risks
same,arrhythmias,[1]; in vivo,fatal arrythmias
CC[C@H]1OC(=O)[C@H](C)[C@@H](O[C@H]2C[C@@](C)(OC)[C@@H](O)[C@H](C)O2)[C@H](C)[C@@H](O[C@@H]2O[C@H](C)C[C@H](N(C)C)[C@H]2O)[C@](C)(O)C[C@@H](C)CN(C)[C@H](C)[C@@H](O)[C@]1(C)O [Azithromycin],hERG IC50,hERG channel [2]; NPC qHTS in-house database,Inactive
same,hERG inhibition,"hERG channel [2]; in words, screening data",no hERG inhibition
CCN(CC)CCCC(C)Nc1ccnc2cc(Cl)ccc12 (stereo not drawn) [Chloroquine],EC50,phospholipidosis (PLD),11 µM
CN(C)CCCN1c2ccccc2Sc2ccc(Cl)cc21 [Chlorpromazine],hERG liability,hERG channel [3]; [5],high (high (curve rank > 4.0))
same,viral replication of SARS-CoV-1,SARS-CoV-1,inhibit in vitro viral replication
same,EC50,phospholipidosis (PLD),10 µM
same,TdP risks,[1]; in vivo,known TdP risks
same,viral replication of MERS-CoV,[4],inhibit in vitro viral replication
NC(N)=Nc1nc(CSCCC(N)=NS(N)(=O)=O)cs1 [Famotidine],SARS-CoV-2 CPE EC50,SARS-CoV-2,Inactive
same,clinical outcomes,COVID-19,improved clinical outcomes
NC(=O)c1nc(F)c[nH]c1=O [Favipiravir],SARS-CoV-2 CPE EC50,SARS-CoV-2,Inactive
CCN(CCO)CCCC(C)Nc1ccnc2cc(Cl)ccc12 (stereo not drawn) [Hydroxychloroquine sulfate],hERG IC50,hERG channel [2]; NPC qHTS in-house database,Inactive
same,SARS-CoV-2 CPE EC50,SARS-CoV-2,Inactive
CC[C@@H](C)[C@H]1O[C@]2(CC[C@@H]1C)C[C@@H]1C[C@@H](C/C=C(\C)[C@@H](O[C@H]3C[C@H](OC)[C@@H](O[C@H]4C[C@H](OC)[C@@H](O)[C@H](C)O4)[C@H](C)O3)[C@@H](C)/C=C/C=C3\CO[C@@H]4[C@H](O)C(C)=C[C@@H](C(=O)O1)[C@]34O)O2 [Ivermectin],IC50,"hERG channel [2]; read-out: hERG IC50, NPC qHTS in-house database",9.7 µM
same,hERG liability,hERG channel [3]; [5],moderate
same,EC50,phospholipidosis (PLD),17 µM
O=C(Nc1ccc([N+](=O)[O-])cc1Cl)c1cc(Cl)ccc1O [Niclosamide],activity in the autophagy assay,autophagy,moderate activity
same,hERG IC50,hERG channel [2]; NPC qHTS in-house database,Inactive
same,EC50,phospholipidosis (PLD),1 µM
CC(=O)Oc1ccccc1C(=O)Nc1ncc([N+](=O)[O-])s1 [Nitazoxanide],activity in the autophagy assay,autophagy,no activity
same,hERG IC50,hERG channel [2]; NPC qHTS in-house database,Inactive
same,activity in the CPE assay,"SARS-CoV-2; in words, screening data",moderate activity
O=C(CCCN1CCC(O)(c2ccc(Cl)cc2)CC1)c1ccc(F)cc1 [haloperidol],hERG liability,hERG channel [3],high (key: low (curve rank < 1.0); medium (curve rank between 1.0 and 4.0); high (curve rank > 4.0))
CN1CCCCC1CCN1c2ccccc2Sc2ccc([S+](C)[O-])cc21 (stereo not drawn) [mesoridazine],hERG liability,hERG channel [3],high (key: low (curve rank < 1.0); medium (curve rank between 1.0 and 4.0); high (curve rank > 4.0))
same,TdP risks,[1]; in vivo,known TdP risks
